Where a SMILES comes first, the peptide text is derived from it. Where no end group is shown, it is not given here. The star is where a group is joined. 5FAM = O=C1OC2(c3ccc(O)cc3Oc3cc(O)ccc32)c2ccc(C(=O)*)cc21; Palmitoyl = CCCCCCCCCCCCCCCC(=O)*

This note sets out measurements from patent US11207421B2, “Nanostructures comprising cobalt porphyrin-phospholipid conjugates and polyhistidine-tags” (The Research Foundation for The State University of New York, priority 2015, dated 2021).

The subject of data set [1] is CoPoP liposomes. The data set is described as follows: Effect of His-tag length on peptide binding to CoPoP liposomes. To be noted: FAM-labeled peptides with varying His-tag length. As for the experimental part: 1 μg of fluorescent reporter protein was incubated with 20 μg of liposomes in 200 μL PBS in a 96 well plate. Fluorescence in the FRET channel (ex: 430 nm, em: 525 nm) was measured periodically with a fluorescence microplate reader (Tecan Infinite II). Data were normalized to the FRET signal in the protein without addition of liposomes. EMSA experiments were performed with 2.5 μg protein incubated with 50 μg liposomes followed by electrophoresis in a 0.75% agarose gel with 50 V applied for 90 minutes and imaging with an IVIS Lumina II system with the indicated excitation and emission filters. For serum stability test, […] in 40u l PBS. After […], 40u l FBS was added and incubated for another 8 h (hours). For imidazole displacement experiments, 1 μg of reporter protein was bound to 20 μg liposomes in PBS. Imidazole was then titrated and binding was assessed with fluorescence. For serum stability, 1 μg of reporter protein was bound to 20 μg liposomes in 100 μL PBS and then an equal volume of fetal bovine serum (VWR #82013-602) was added and binding was monitored with fluorescence. Peptide binding was assessed with RGD-His FAM fluorophore quenching following incubation of 500 ng peptide with 20 μg liposomes.
The effect of His-tag length on peptide binding to CoPoP liposome was examined. A series of N-terminus FAM-labeled peptides was synthesized with varying lengths of His-tag attached to the C-terminus.

Data set [2] is classed as physicochemical. To be noted: not told. As for the experimental part:
PoP-liposomes were formulated at a 1 mg scale. After dissolving lipids in chloroform in a test tube, the solvent was evaporated and the film was further dried under vacuum overnight. Lipids were rehydrated with 1 mL of phosphate buffered saline (PBS), sonicated, subjected to 10 freeze-thaw cycles and then extruded through 100 nm polycarbonate membranes (VWR #28157-790) with a handheld extruder (Avanti #610000). For protein and peptide binding analysis, liposomes were formed with 10 mol % PoP along with 85 mol % DOPC (Avanti #850375P), and 5 mol % PEG-lipid (Avanti #880120P). […] Liposomes incorporating free Co-porphyrin included 10 molar % Co-pyropheophorbide with 85 mol % DOPC and 5 mol % PEG-lipid. Co-NTA-liposome was prepared using liposomes containing 10 mol % dioleoyl-gycero-NTA (Avanti #790528P). Liposomes were incubated with 20 mg/mL cobalt (II) chloride for 2 hours and then dialized in PBS. Sulforhodamine B loading liposomes contained 10 mol % PoP, 35 mol % cholesterol (Avanti #700000P), 55 mol % DOPC and PEG-lipid as indicated. […] For bilayer integrity and quantitative cell binding studies, 50 mM dye was used, whereas microscopy studies used 10 mM dye.
Given the binding efficacy of the His-tagged peptide to liposomes, bilayer integrity was assessed to determine whether peptide binding induces membrane destabilization. […]

Data set [3] relates to U87 cells. Kind of data set: Uptake of CoPoP liposomes bound to his-tagged cell penetrating peptides. It is filed as cell-based. To be noted: 1 hour incubation; [2:5:30:63] [PoP:CoP:CHOL:DMPC]. The text has this:
In this example, CoPoP liposomes were targeted to cells via his-tagged cell penetrating peptides. The following his-tagged cell penetrating peptides were obtained: […] (SEQ ID NO:13) (TAT peptide); […] (SEQ ID NO:14) (R8 peptide); […] (SEQ ID NO:15) (PEN peptide).

Data set [4] deals with U87 glioblastoma cells. The data set is described as follows: Targeted uptake of sulforhodamine B-loaded liposomes. Type of data set: cell-based. To be noted: excess free RGD peptide. How it is done:
U-87 and MCF-7 cell lines were obtained from ATCC and cultured according to vendor protocol. 2×10^4 cells were seeded overnight in 96-well-plate wells. 500 ng RGD-His peptide was bound with 20 μg of sulforhodamine B loaded liposomes and liposomes were incubated with cells for 2 h. Media was removed, cells were washed with PBS 3 times and then cells and liposomes were lysed with a 1% Triton X-100 solution. Liposomal uptake was assessed by measuring the fluorescence of sulforhodamine B.
For confocal imaging, 10^4 cells were seeded overnight in a Nunc chamber slide (Nunc #155411) in DMEM with 10% fetal bovine serum (FBS). 20 μg of liposomes were added to the serum containing media and incubated for 2 h. Media was removed and the cells were washed with PBS 3 times. Fresh media was added and cells were imaged with microscopy using a Zeiss LSM 710 confocal fluorescence microscope. Gold imaging was carried out in the same way but 633 nm light was used for both excitation and emission for back scatter imaging. […]
Next, RGD-decorated liposomes were assessed whether they could bind to their molecular targets with the established cell-line pair of U87 glioblastoma cells (RGD-binding) and MCF7 breast cancer cells (RGD non-binding). […] Liposomal uptake was assessed by examining the fluorescence in the cells following washing and lysis (to remove any effects of cargo self-quenching). […]

The test system of data set [5] is U87 cells. The data set is described as follows: Uptake of coated gold nanospheres (confocal reflectance/backscatter microscopy). It is filed as cell-based. To be noted: free RGD. As for the experimental part: For gold coating, 60 nm citrate-stabilized gold nanospheres (Ted Pella #15709-20) were used to hydrate a 1 mg lipid film composed of 45 mol % distearoyl phosphocholine (Avanti #850365P), 45 mol % distearoyl phosphoglycerol (Avanti #840465X) and 10 mol % PoP. Following brief vortexing and sonication, the samples were repeatedly centrifuged at 1500 relative centrifugal force (rcf) for 15 min. The supernatant was discarded and the pellet was resuspended and re-centrifuged 2 more times. PoP gold was resuspended in water for further analysis.
For confocal imaging, 10^4 cells were seeded overnight in a Nunc chamber slide (Nunc #155411) in DMEM with 10% fetal bovine serum (FBS). 20 μg of liposomes were added to the serum containing media and incubated for 2 h. Media was removed and the cells were washed with PBS 3 times. Fresh media was added and cells were imaged with microscopy using a Zeiss LSM 710 confocal fluorescence microscope. Gold imaging was carried out in the same way but 633 nm light was used for both excitation and emission for back scatter imaging. After peptide binding, gold was centrifuged to remove any unbound RGD peptide.
Liposomes represent only a subset of all the types of nanomaterials used in biomedical applications. CoPoP was assessed as a generalized surface coating with selective adhesion for His-tags. […]

The target of data set [6] is T1, his-tagged OspA (Borreliella burgdorferi, UniProt P0CL66).
T1 construct: made in house; host or cells: E. coli
T1 sequence (P0CL66 17-273): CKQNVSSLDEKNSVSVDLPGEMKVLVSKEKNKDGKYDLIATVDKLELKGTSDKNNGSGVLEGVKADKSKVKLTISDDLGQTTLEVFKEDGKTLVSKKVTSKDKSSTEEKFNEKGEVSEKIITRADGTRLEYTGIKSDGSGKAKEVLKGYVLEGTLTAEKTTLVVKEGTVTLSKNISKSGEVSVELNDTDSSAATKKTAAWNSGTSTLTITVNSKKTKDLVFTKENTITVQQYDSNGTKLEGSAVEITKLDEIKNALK
The data set is described as follows: OspA binding to CoPoP/PHAD liposomes (native PAGE, microBCA). To be noted: microBCA assay of supernatant after high speed centrifugation. Details: species or system Borrelia burgdorferi. As for the experimental part: FIG. 23. […] (D) Hydrodynamic diameter and polydispersity index of liposomes measured using dynamic light scattering. […] Acquisitions were made 3 hr after incubation of liposomes with protein. Error bars represent standard deviations for n=3 measurements.
Spontaneous formation of the proteoliposomes occurs via insertion of the histidine tag into the hydrophobic bilayer and subsequent coordination of the imidazole moiety to the metal center. Binding conditions for were evaluated using native electrophoresis, which allows physical separation of liposome-bound and free proteins due to the limiting pore size of the acrylamide gel. Observed optimum binding mass ratio of 4:1 of PHAD:OspA (FIG. 23A) is consistent with previous studies using the malaria antigen, Pfs25. […] It can be deduced that the initial phase of binding occurred at a fast rate based from the relative band intensities for time points, 0 and 15 min. At the particleization conditions, specific binding is estimated to be about 80% based from microBCA assay of the supernatant obtained from high speed centrifugation (FIG. 23C).

Data set [7] deals with murine RAW 264.7 macrophage cells. Kind of data set: DY-490-OspA uptake by macrophage cells. It is filed as cell-based. To be noted: 2 hr incubation. As for the experimental part: FIG. 24. Assessing epitope availability and stability of antigen-functionalized nanoliposomes. (A) Stability of nanoliposome-antigen particles in 20% (v/v) human serum based on fluorescence quenching assay. (B) Immunoprecipitation of OspA-bound liposomes by OspA-specific monoclonal antibody LA-2. (C) DY-490-OspA uptake by murine RAW 264.7 macrophage cells following 2 hr incubation with indicated samples. Cytochalasin B was supplemented to medium 1 hr prior to incubation. Error bars represent standard deviations for n=3 experiments.
Practical utility of liposomes as antigen delivery vesicles is attributed from its enhanced uptake by antigen presenting cells. […] The macrophage selective uptake of PoP/PHAD liposomes in the mixed form further implicates that physical association of antigen to liposomes may be necessary for liposomal adjuvanticity. Co-delivery of surface-exposed antigen and immunostimulant to immune cells is an important facet of the CoPoP/PHAD liposome. Cellular uptake mechanism via phagocytosis is supported by the diminished uptake for both antigen and liposome in the presence of cytochalasin B.

Take “5-FAM-KKGGGGHHHHHHHHHH (SEQ ID NO: 10) (5FAM-KKGGGGHHHHHHHHHH) [10-His]”: the “binding t1/2” value in data set [1] was 0.333 h. On the same count and under the same terms, as for “5-FAM-KKGGGG (SEQ ID NO: 5) (5FAM-KKGGGG) [0-His]”, the entry is “no peptide binding was observed”. Consider `CCCCCCCCCCCCCCCC(=O)NCCCC[C@H](NC(=O)CNC(=O)[C@H](CCCCN)NC(=O)[C@H](C)NC(=O)CNC(=O)[C@H](C)NC(=O)CNC(=O)[C@H](CCCCN)NC(=O)[C@@H]1CCCN1C(=O)[C@H](CO)NC(=O)[C@H](CC(=O)O)NC(=O)CNC(=O)[C@H](CCCNC(=N)N)NC(=O)CNC(=O)c1ccc2c(c1)C(=O)OC21c2ccc(O)cc2Oc2cc(O)ccc21)C(=O)O` [RGD-palm] (5FAM-GRGDSPKGAGAKGK(Palmitoyl)-OH; C-terminus assumed), for which the “membrane permeabilization by lipopeptide” value in data set [2] is recorded as “permeabilization of cargo-loaded liposomes”. Turning to “HHHHHHHGRKKRRQRRRPPQ (SEQ ID NO:13) (cell penetrating peptide) [TAT peptide]”, the “binding and uptake of peptide-bound CoPoP liposomes” value in data set [3] was “could bind and get uptaken”. On the same count and under the same terms, as for “HHHHHHHRQIKIWFQNRRMKWKK (SEQ ID NO:15) (cell penetrating peptide) [PEN peptide]”, the entry is “could bind and get uptaken”. In the case of “5-FAM-KKGGGGHH (SEQ ID NO: 6) (5FAM-KKGGGGHH) [2-His]”, the “binding t1/2” value in data set [1] is approximately 10 h. In the case of GRGDSPK (SEQ ID NO: 2) [Free RGD], in data set [4], the “inhibition of targeted liposome binding” value was “Binding could be inhibited”. In addition, the “inhibition of gold nanoparticle binding” value in data set [5] is reported as “inhibited the binding”.

“5-FAM-KKGGGGHHHHHH (SEQ ID NO: 8) (5FAM-KKGGGGHHHHHH) [6-His]”: the “binding t1/2” value in data set [1] is “less than one hour”. “lysozyme: a non-histidine tagged protein”: in data set [6], the specific binding result is listed as “failed to bind”. With “OspA: his-tagged OspA based on the B31 strain protein sequence without the lipid tail, free non-adjuvanted”, the antigen uptake entry in data set [7] is recorded as “Minimal uptake”. Consider “HHHHHHHRRRRRRRR (SEQ ID NO:14) (cell penetrating peptide) [R8 peptide]”, for which the “binding and uptake of peptide-bound CoPoP liposomes” value in data set [3] was “could bind and get uptaken”.
